This passage reports mutagenic call results from PubChem BioAssay AID1259407 (Chemical Carcinogenesis Research Information System (CCRIS), 2018).

The series relates to CCRIS mutagenicity, Ames/micronucleus/aberration tests. The series is described as follows: CCRIS mutagenicity studies.
[1] abbreviates: Test System: AMES SALMONELLA TYPHIMURIUM, Strain/Indicator: TA98, Metabolic Activation: NONE, Method: PREINCUBATION
Setting [2] is: Test System: AMES SALMONELLA TYPHIMURIUM, Strain/Indicator: TA100, Metabolic Activation: NONE, Method: PREINCUBATION

Activity calls are given as the source filed them. How the calls were made is not given here.

`Clc1ccc(C(c2ccc(Cl)cc2)C(Cl)(Cl)Cl)cc1`: the mutagenic call (Test System: AMES SALMONELLA TYPHIMURIUM, Strain/Indicator: TA97, Metabolic Activation: HAMSTER, LIVER, S-9, AROCLOR 1254 (10 OR 30%), Method: PREINCUBATION) is “inactive; negative”; the mutagenic call (Test System: AMES SALMONELLA TYPHIMURIUM, Strain/Indicator: TA97, Metabolic Activation: NONE, Method: PREINCUBATION) is “inactive; negative”; the mutagenic call (Test System: AMES SALMONELLA TYPHIMURIUM, Strain/Indicator: TA97, Metabolic Activation: RAT, LIVER, S-9, AROCLOR 1254 (10 OR 30%), Method: PREINCUBATION) was “inactive; negative”; the mutagenic call (Test System: AMES SALMONELLA TYPHIMURIUM, Strain/Indicator: TA98, Metabolic Activation: HAMSTER, LIVER, S-9, AROCLOR 1254 (10 OR 30%), Method: PREINCUBATION) is “inactive; negative”; the mutagenic call under setting [1] is “inactive; negative”; the mutagenic call (Test System: AMES SALMONELLA TYPHIMURIUM, Strain/Indicator: TA98, Metabolic Activation: RAT, LIVER, S-9, AROCLOR 1254 (10 OR 30%), Method: PREINCUBATION) is “inactive; negative”. For the same compound, the mutagenic call was “inactive; negative” (Test System: AMES SALMONELLA TYPHIMURIUM, Strain/Indicator: TA100, Metabolic Activation: HAMSTER, LIVER, S-9, AROCLOR 1254 (10 OR 30%), Method: PREINCUBATION); “inactive; negative” under setting [2]; “inactive; negative” (Test System: AMES SALMONELLA TYPHIMURIUM, Strain/Indicator: TA100, Metabolic Activation: RAT, LIVER, S-9, AROCLOR 1254 (10 OR 30%), Method: PREINCUBATION); “inactive; negative” (Test System: AMES SALMONELLA TYPHIMURIUM, Strain/Indicator: TA1535, Metabolic Activation: HAMSTER, LIVER, S-9, AROCLOR 1254 (10 OR 30%), Method: PREINCUBATION); “inactive; negative” (Test System: AMES SALMONELLA TYPHIMURIUM, Strain/Indicator: TA1535, Metabolic Activation: NONE, Method: PREINCUBATION); “inactive; negative” (Test System: AMES SALMONELLA TYPHIMURIUM, Strain/Indicator: TA1535, Metabolic Activation: RAT, LIVER, S-9, AROCLOR 1254 (10 OR 30%), Method: PREINCUBATION). The mutagenic call runs as follows: (Test System: AMES SALMONELLA TYPHIMURIUM, Strain/Indicator: TA1537, Metabolic Activation: HAMSTER, LIVER, S-9, AROCLOR 1254 (30%), Method: PREINCUBATION) “inactive; negative”; (Test System: AMES SALMONELLA TYPHIMURIUM, Strain/Indicator: TA1537, Metabolic Activation: NONE, Method: PREINCUBATION) “inactive; negative”; (Test System: AMES SALMONELLA TYPHIMURIUM, Strain/Indicator: TA1537, Metabolic Activation: RAT, LIVER, S-9, AROCLOR 1254 (30%), Method: PREINCUBATION) “inactive; negative”; (Test System: CHINESE HAMSTER V-79, Strain/Indicator: V-79/8-AZAGUANINE, Metabolic Activation: NONE, Method: STANDARD PLATE) “active; positive”.
On to `O=[N+]([O-])c1ccc(Br)c([N+](=O)[O-])c1`, for which the mutagenic call is “active; positive” (Test System: AMES SALMONELLA TYPHIMURIUM, Strain/Indicator: TA98(1,8-DNP6), Metabolic Activation: NONE, Method: PREINCUBATION); “active; positive” (Test System: AMES SALMONELLA TYPHIMURIUM, Strain/Indicator: TA98(NR), Metabolic Activation: NONE, Method: PREINCUBATION); “active; positive” under setting [1]; “active; positive” (Test System: AMES SALMONELLA TYPHIMURIUM, Strain/Indicator: TA100(NR), Metabolic Activation: NONE, Method: PREINCUBATION); “active; positive” (Test System: AMES SALMONELLA TYPHIMURIUM, Strain/Indicator: TA100/GSH-, Metabolic Activation: NONE, Method: PREINCUBATION); “active; positive” under setting [2].
`C1=Cc2c(ccc3ccc4ccccc4c23)C1`: the mutagenic call (Test System: AMES SALMONELLA TYPHIMURIUM, Strain/Indicator: TA100, Metabolic Activation: RAT, LIVER, S-9, AROCLOR 1254, Method: STANDARD PLATE) is “active; positive”.
